Laboratory results: publication PMC4849076, “New Cyclic Lipopeptides of the Iturin Class Produced by Saltern-Derived Bacillus sp. KCB14S006” (Marine Drugs, 2016)
≈ marks a conversion by molar mass, not a printed value. Read-outs that look alike come from different tables or passages of the source. *1 amine or outer side, *2 acyl side, *3 side chain or, on linkers, in order; H or OH if unused. Where a SMILES comes first, the peptide text is derived from it. [ ]: non-standard residue; d: D form. X1 = CCC(C)CCCCCCCCCC[C@H](CC(=O)[*:2])N[*:1]; X2 = CC(C)CCCCCCCCCCC[C@H](CC(=O)[*:2])N[*:1]; Hyp = O=C(O)[C@@H]1C[C@@H](O)CN1

What was measured:
[1] = test system: MCF-7; parameters: method as in PMID 25974307; conditions: MCF-7 breast cancer cells; cited from earlier work
[2] = test system: Akt signaling network; parameters: method as in PMID 25974307; conditions: MDA-MB-231 and MCF-7 breast cancer cells; cited from earlier work
[3] = test system: MDA-MB-231; parameters: method as in PMID 25974307; conditions: MDA-MB-231 breast cancer cells; cited from earlier work
[4] = test system: Neurospora crassa KCTC 6079; assay: Antifungal assay (MIC), Neurospora crassa; assay type: cell-based; conditions: for MIC: Neurospora crassa, potato dextrose broth, 2% of overnight cultures, 28 °C, 72 h, lowest concentration preventing visible growth; for Antifungal activity compared with 3 and 4: N. crassa, from MIC
Description: (§1) The following microorganisms were used as test strains in the assay; Aspergillus flavus KCTC 6984, Neurospora crassa KCTC 6079, Candida tropicalis KCTC 7830, Candida albicans KCTC 7678, Fusarium oxysporum f. sp. cucumerinum KCTC 6084, Alternaria brassicicola ATCC 96836 and Penicillium griseofulvum KCTC 6435. Potato dextrose broth (Difco Laboratories) was used for a test medium. For C. albicans and C. tropicalis, 100 μL of inoculum suspension of 10^5 spores/mL was plated into 96-well plates containing diluted test compounds, and the plates were incubated at 28 °C for 48 h. For A. flavus, N. crassa, F. oxysporum, A. brassicicola and P. griseofulvum, 100 μL of cell suspension containing 2% of overnight cultures in 96-well were incubated at 28 °C for 72 h. The MIC values were determined as the lowest concentration of each compound that prevented visible growth.

[5] = test system: Candida tropicalis KCTC 7830; assay: Antifungal assay (MIC), Candida tropicalis; assay type: cell-based; conditions: 10^5 spores/mL, 28 °C, 48 h, lowest concentration preventing visible growth
Description: as §1

[6] = test system: Penicillium griseofulvum KCTC 6435; assay: Antifungal assay (MIC), Penicillium griseofulvum; assay type: cell-based; conditions: for MIC: Penicillium griseofulvum, potato dextrose broth, 2% of overnight cultures, 28 °C, 72 h, lowest concentration preventing visible growth; for Antifungal activity compared with 3 and 4: P. griseofulvum, from MIC
Description: as §1

[7] = test system: Alternaria brassicicola ATCC 96836; assay: Antifungal assay (MIC), Alternaria brassicicola; assay type: cell-based; conditions: 2% of overnight cultures, 28 °C, 72 h, lowest concentration preventing visible growth
Description: as §1

[8] = test system: Fusarium oxysporum f. sp. cucumerinum KCTC 6084; assay: Antifungal assay (MIC), Fusarium oxysporum; assay type: cell-based
Description: as §1

[9] = test system: Candida albicans KCTC 7678; assay: Antifungal assay (MIC), Candida albicans; assay type: cell-based; conditions: for MIC: Candida albicans, potato dextrose broth, 10^5 spores/mL, 28 °C, 48 h, lowest concentration preventing visible growth; for Antifungal activity compared with 3 and 4: C. albicans, from MIC
Description: as §1

[10] = test system: Aspergillus flavus KCTC 6984; assay: Antifungal assay (MIC), Aspergillus flavus; assay type: cell-based; conditions: for MIC: Aspergillus flavus, potato dextrose broth, 2% of overnight cultures, 28 °C, 72 h, lowest concentration preventing visible growth; for Antifungal activity compared with 3 and 4: A. flavus, from MIC
Description: as §1

[11] = Cytotoxicity assay, HeLa; assay type: cell-based; conditions: human, HeLa cells, DMEM + 10% fetal bovine serum, 37 °C, WST-8, absorbance 450 nm, read-out: Cytotoxic activity, IC50
Description: (§2) The human cervix epidermoid carcinoma cell line HeLa was cultured at 37 °C in DMEM (Invitrogen/Life Technologies, Carlsbad, CA, USA), supplemented with 10% fetal bovine serum (Sigma-Aldrich, St. Louis, MO, USA). src^ts-NRK cells, rat kidney cells that were infected with ts25, a T-class mutant of Rous sarcoma virus Prague strain, were cultured at permissive temperature (32 °C) in MEM (Sigma-Aldrich), supplemented with 10% calf serum (PAA Laboratories, Pashing, Austria). Each cell line was seeded into a 96-well plate (HeLa, 4 × 10^3 cells/well; src^ts-NRK, 1 × 10^4 cells/well) and then exposed to test compounds. After 48 h incubation, cell proliferation was determined using a Cell Count Reagent SF (Nacalai Tesque). Briefly, a 1/10 volume of WST-8 solution was added to each well, and the plates were incubated at 37 °C for 1 h. Then, the absorbance at 450 nm was measured in a microplate reader.

[12] = Cytotoxicity assay, src^ts-NRK; assay type: cell-based; conditions: rat, src^ts-NRK cells, MEM + 10% calf serum, 32 °C (permissive temperature), WST-8, absorbance 450 nm, read-out: Cytotoxic activity, IC50
Description: as §2

[13] = biological target: T1, human recombinant IDO (Homo sapiens, UniProt P14902); assay: Indoleamine 2,3-dioxygenase (IDO) inhibition assay; assay type: biochemical
T1 construct: made in house; host or cells: E. coli
Description: The enzymatic inhibition assay was performed with human recombinant IDO expressed in E. coli according to previously described method with some modifications. The reaction mixture (200 μL) contained 50 mM potassium phosphate buffer (pH 6.5), 20 mM ascorbic acid, 10 μM methylene blue, 200 μM L-Trp, 20 μg/mL catalase and a sample in 2 μL of DMSO. The samples were serially diluted […] from 50 to 0.1 μM. The reaction was started by the addition of IDO and continued at 37 °C for 60 min. After termination of the reaction by addition of 40 μL of 30% (w/v) trichloroacetic acid, the resulting mixtures were incubated at 60 °C for 15 min, followed by centrifugation at 2000 × g for 15 min. Finally, 125 μL of supernatant is added to 125 μL of p-dimethylaminobenzaldehyde (pDMAB) (2%, v/v) in acetic acid, and the absorbance at 480 nm was measured.

[14] = potato dextrose broth, 2% of overnight cultures, 28 °C, 72 h, lowest concentration preventing visible growth

T1 sequence (P14902 whole entry): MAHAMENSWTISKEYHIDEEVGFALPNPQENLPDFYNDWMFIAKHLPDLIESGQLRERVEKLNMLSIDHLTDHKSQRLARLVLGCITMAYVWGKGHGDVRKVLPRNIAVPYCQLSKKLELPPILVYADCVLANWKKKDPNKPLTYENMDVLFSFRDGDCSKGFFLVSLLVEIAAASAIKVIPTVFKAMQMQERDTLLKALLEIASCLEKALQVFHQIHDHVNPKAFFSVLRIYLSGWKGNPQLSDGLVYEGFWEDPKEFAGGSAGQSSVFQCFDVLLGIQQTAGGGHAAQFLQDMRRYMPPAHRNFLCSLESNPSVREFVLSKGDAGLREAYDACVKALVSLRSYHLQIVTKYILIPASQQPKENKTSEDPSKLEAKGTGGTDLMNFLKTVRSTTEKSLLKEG

Compound	MIC [4] [µg/mL]	MIC ([5]; potato dextrose broth) [µg/mL]	MIC [6] [µg/mL]	MIC ([7]; potato dextrose broth) [µg/mL]	IC50 at 48 h [11] [µM]	IC50 at 48 h [12] [µM]	MIC [8, 14] [µg/mL]	MIC [9] [µg/mL]	MIC [10] [µg/mL]	other results
iturin A	–	–	–	–	–	–	–	–	–	Inhibition of proliferation [1]: inhibits the proliferation; Inhibition of Akt signaling network [2]: inhibiting the Akt signaling network; Inhibition of proliferation [3]: inhibits the proliferation
C[C@@H]1[C@H](O)[C@@H](C)/C=C/C=C/C=C/C=C/C=C/C=C/C=C/[C@H](O[C@@H]2O[C@H](C)[C@@H](O)[C@H](N)[C@@H]2O)C[C@@H]2O[C@](O)(C[C@@H](O)C[C@@H](O)[C@H](O)CC[C@@H](O)C[C@@H](O)CC(=O)O[C@H]1C)C[C@H](O)[C@H]2C(=O)O [Amphotericin B, reference compound]	–	–	–	–	–	–	–	–	–	MIC ([4]; KCTC6079, read-out: MIC): 0.098 µg/mL (≈ 0.106 µM); MIC ([5]; KCTC7830, potato dextrose broth, read-out: MIC): 0.781 µg/mL (≈ 0.845 µM); MIC ([6]; KCTC6435, read-out: MIC): 3.12 µg/mL (≈ 3.38 µM); MIC ([7]; ATCC96836, potato dextrose broth, read-out: MIC): 0.391 µg/mL (≈ 0.423 µM); MIC ([8]; KCTC6084, 72 h): 12.5 µg/mL (≈ 13.5 µM); MIC ([9]; KCTC7678, read-out: MIC): 0.098 µg/mL (≈ 0.106 µM); MIC ([10]; KCTC6984, read-out: MIC): 0.195 µg/mL (≈ 0.211 µM)
CC(C)CCCCCCCCCCC[C@@H]1CC(=O)N[C@@H](CC(N)=O)C(=O)N[C@H](Cc2ccc(O)cc2)C(=O)N[C@H](CC(N)=O)C(=O)N[C@@H](CCC(N)=O)C(=O)N2C[C@H](O)C[C@H]2C(=O)N[C@H](CC(N)=O)C(=O)N[C@@H](CO)C(=O)N1 [Compound 1, Iturin F1] (cyclo(N[dY][dN]Q[Hyp][dN]S[X2]))	6.25 (≈ 5.68 µM)	6.25 (≈ 5.68 µM)	3.125 (≈ 2.84 µM)	25 (≈ 22.7 µM)	8.9	8.9	25 (≈ 22.7 µM)	6.25 (≈ 5.68 µM)	3.125 (≈ 2.84 µM)	Antifungal activity compared with 3 and 4 [4]: better activities than 3 and 4; Antifungal activity compared with 3 and 4 [6]: better activities than 3 and 4; Antifungal activity compared with 3 and 4 [9]: better activities than 3 and 4; Antifungal activity compared with 3 and 4 [10]: better activities than 3 and 4
CCC(C)CCCCCCCCCC[C@@H]1CC(=O)N[C@@H](CC(N)=O)C(=O)N[C@H](Cc2ccc(O)cc2)C(=O)N[C@H](CC(N)=O)C(=O)N[C@@H](CCC(N)=O)C(=O)N2C[C@H](O)C[C@H]2C(=O)N[C@H](CC(N)=O)C(=O)N[C@@H](CO)C(=O)N1 (stereo partly drawn) [Compound 2, Iturin F2] (cyclo(N[dY][dN]Q[Hyp][dN]S[X1]))	6.25 (≈ 5.68 µM)	6.25 (≈ 5.68 µM)	3.125 (≈ 2.84 µM)	25 (≈ 22.7 µM)	7.8	7.4	25 (≈ 22.7 µM)	6.25 (≈ 5.68 µM)	3.125 (≈ 2.84 µM)	Antifungal activity compared with 3 and 4 [4]: better activities than 3 and 4; Antifungal activity compared with 3 and 4 [6]: better activities than 3 and 4; Antifungal activity compared with 3 and 4 [9]: better activities than 3 and 4; Antifungal activity compared with 3 and 4 [10]: better activities than 3 and 4
CC(C)CCCCCCCCCCC[C@@H]1CC(=O)N[C@@H](CC(N)=O)C(=O)N[C@H](Cc2ccc(O)cc2)C(=O)N[C@H](CC(N)=O)C(=O)N[C@@H](CCC(N)=O)C(=O)N2CCC[C@H]2C(=O)N[C@H](CC(N)=O)C(=O)N[C@@H](CO)C(=O)N1 [Compound 3, Iturin A9] (cyclo(N[dY][dN]QP[dN]S[X2]))	12.5 (≈ 11.5 µM)	6.25 (≈ 5.76 µM)	6.25 (≈ 5.76 µM)	25 (≈ 23 µM)	4.6	5.2	25 (≈ 23 µM)	12.5 (≈ 11.5 µM)	25 (≈ 23 µM)	–
CCC(C)CCCCCCCCCC[C@@H]1CC(=O)N[C@@H](CC(N)=O)C(=O)N[C@H](Cc2ccc(O)cc2)C(=O)N[C@H](CC(N)=O)C(=O)N[C@@H](CCC(N)=O)C(=O)N2CCC[C@H]2C(=O)N[C@H](CC(N)=O)C(=O)N[C@@H](CO)C(=O)N1 (stereo partly drawn) [Compound 4, Iturin A8] (cyclo(N[dY][dN]QP[dN]S[X1]))	12.5 (≈ 11.5 µM)	6.25 (≈ 5.76 µM)	6.25 (≈ 5.76 µM)	25 (≈ 23 µM)	5.6	9	25 (≈ 23 µM)	12.5 (≈ 11.5 µM)	12.5 (≈ 11.5 µM)	IC50 ([13]; human recombinant IDO expressed in E. coli, 50 mM potassium phosphate pH 6.5, 200 μM L-Trp, 37 °C, 60 min, pDMAB, absorbance 480 nm, read-out: IDO inhibition, IC50): 5.5 µM; IDO inhibitory activity (in words) ([13]; human recombinant IDO, pH 6.5, 200 μM L-Trp, 37 °C, 60 min, samples 0.1 to 50 μM): significant inhibitory activity
CC1=CC(=O)c2ccccc2C1=O [menadione, reference compound]	–	–	–	–	–	–	–	–	–	IC50 [13]: 0.64 µM
